# Laboratory results as given in patent US7553824B2, “Kit for determining polysaccharide-binding activity of mononuclear cells present in peripheral blood” (Ajinomoto Co., Inc., priority 2004, dated 2009).
# Read-outs that look alike come from different tables or passages of the source.
# Assays:
# [1] = tested on: monocytes; experiment: Test on binding-inhibitory effect of lentinan, human blood; settings: 100 μg/mL lentinan added before 10 μg/mL fluorescein-labeled lentinan, Cases 3 and 4
# Experimental: To the human blood sample, there was added the solution of lentinan (reference reagent 2) in a concentration of […], the resulting mixture was cultured at 37° C. for 15 minutes, fluorescein-labeled lentinan was then added thereto in a concentration of 10 μg/mL and the resulting mixture was further cultivated at 37° C. for additional 30 minutes. Thereafter, a PE-labeled antibody (available from Caltag Company) against human CD14 was added thereto, the resulting mixture was cultured at 37° C. for 30 minutes, 2 mL/tube of FACS Lysing Solution (a hemolysis/fixation liquid available from BD Company; diluted 10 times with distilled water) and then the resulting mixture was allowed to stand at room temperature for 10 minutes for the hemolysis of the blood sample. The subsequent operations and analysis were carried out by repeating the same procedures used above in the binding ability-determining method (in the foregoing paragraph) (the results thus obtained are shown in FIG. 7 (indicated by LNT+FL)). The similar analysis was carried out using fluorescein-labeled dextran as a control (reference reagent 1) for the fluorescein-labeled lentinan.
# [2] = tested on: S180 mouse sarcoma cells; settings: S180 subcutaneously transplanted, cited from earlier work
# [3] = tested on: blood cells (monocytes, granulocytes, lymphocytes); experiment: Test on binding-inhibitory effect of lentinan, mouse whole blood; set-up: species or system ICR mice; settings: 50 μg/mL un-labeled lentinan added before 5-40 μg/mL fluorescein-labeled lentinan, one hour
# Experimental: Upon the determination of the binding ability and prior to the dispensation of the whole blood into tubes, a 2 mg/mL lentinan solution diluted 10 times with PBS(−) was introduced into each tube in an amount of 25 μL/tube while ice-cooling the tubes, then the whole blood was dispensed into the tubes in an amount of 65 μL/tube and thereafter, a solution of fluorescein-labeled lentinan was added to each tube in an amount of 10 μL/tube (the final concentration of the lentinan solution for inhibition was set at 50 μg/mL). Then the subsequent operations were carried out according to the same procedures used above in the method for determining the binding ability (the previous section). (The results thus obtained are shown in FIG. 1 (indicated by FL+L50)).
substance,measurement,setting,value
lentinan,effect on binding of fluorescein-labeled lentinan with cells,[1],inhibited
same,anti-tumor effect,[2]; C3H mice,weak anti-tumor effects
same,anti-tumor effect,[2]; C57BL/6 mice,medium anti-tumor effects
same,anti-tumor effect,[2]; ICR and BALB/c mice,higher anti-tumor effects
same,effect on the binding ability of cells to fluorescein-labeled lentinan,[3],inhibited
